Columns and labels:
CYP3A4 mRNA = assay: CYP induction (mRNA, qPCR) in fresh human hepatocytes; assay type: in vitro ADME
Method: Fresh human hepatocytes were treated with culture medium with maribavir concentrations of 36 μM, 144 μM, and 480 μM.
Positive controls were 50 μM omeprazole (CYP1A2), 1 mM phenobarbital (CYP2B6), and 50 μM rifampicin (CYP3A).
Incubation was conducted at 37° C. for 72 hours, with daily replacement of medium with compound. Total RNA was isolated, and cDNA was synthesized from up to 1 μg of total isolated RNA. Analysis of CYP expression was performed using qPCR with CYP-specific probes.
Half maximal effective concentration (EC50) and maximum effect (Emax) values for CYP3A4 mRNA induction were further determined by a concentration-response curve in three donors with maribavir at a concentration between 0-100 μM.

[1] = design: species or system human; settings: in vivo
Source text: It can be taken with or without food, and no dose adjustment is needed in patients with mild-to-moderate hepatic impairment or renal impairment. Maribavir has a low drug-interaction potential and there are minimal dose adjustments required (for example, only when taken concurrently with CYP3A4 inducers or certain immunosuppressants) and there are no effects on QT interval.

[2] = design: species or system human; settings: human, in vivo
Source text: Accumulated data have shown that maribavir is metabolized primarily in the liver, and renal clearance is a minor route (representing less than 5 percent). VP 44469 (N-dealkylated Maribavir) was the principal metabolite of maribavir in both urine and feces. In plasma, unchanged maribavir and VP 44469 represented approximately 69% and 9.8% of total radioactivity, respectively. The hepatic metabolism of maribavir was primarily driven by cytochrome P450s. CYP3A4 and CYP1A2 were responsible for 70 to 85% and 15 to 30% of the CYP-driven pathways, respectively. Glucuronidation accounted for less than 20% of metabolism.
Distribution models evaluated included a full PBPK model and a minimal PBPK model, both of which consider liver and intestinal metabolism. Mass balance data from the [^14C] ADME study indicated a fraction absorbed of 0.83 or greater following oral administration of 400 mg dose of maribavir. Absorption models evaluated included a simple first-order absorption model and a more mechanistic “Advanced Dissolution Absorption and Metabolism” (ADAM) model.

clinical = settings: human, in vivo; for AUC(0-t): AUC(0-12 h)
Method: A combination of in vitro data and clinical pharmacokinetic data obtained following a single dose of 400 mg maribavir were used to develop the PBPK model. […] The Cmax was marginally under predicted, which could be expected because the PBPK model was optimized for better prediction of C12h.
A comparison of observed and predicted plasma concentrations of maribavir following single oral doses of 800 mg and 1600 mg to healthy patients […]. […] The simulated and observed maribavir concentrations were in reasonable agreement.
A comparison of observed and predicted plasma concentrations of maribavir following multiple oral 400 mg BID doses of maribavir was performed. […] The simulated and observed maribavir concentrations were in reasonable agreement.

[3] = Observed clinical interaction of maribavir with rifampicin; assay type: in vivo, human; settings: maribavir 400 mg BID with/without rifampicin 600 mg QD
Method: A comparison of observed and predicted plasma concentrations of maribavir following multiple oral doses of 400 mg administered in the absence of rifampicin and during concurrent treatment with rifampicin was performed. Subjects took maribavir 400 mg BID on Days 1-3 (5 doses), then rifampicin 600 mg QD on Days 4 through 12, followed by both maribavir 400 mg (BID) and rifampicin 600 mg QD on Days 13 and 14, with final doses of maribavir and rifampicin on the morning of Day 15.

[4] = PBPK simulation of maribavir with rifampicin; design: species or system human
Method: A comparison of observed and predicted plasma concentrations of maribavir following multiple oral doses of 400 mg administered in the absence of rifampicin and during concurrent treatment with rifampicin was performed. Subjects took maribavir 400 mg BID on Days 1-3 (5 doses), then rifampicin 600 mg QD on Days 4 through 12, followed by both maribavir 400 mg (BID) and rifampicin 600 mg QD on Days 13 and 14, with final doses of maribavir and rifampicin on the morning of Day 15. […]

P-gp = target: T1, P-gp (Homo sapiens, UniProt P08183); assay: Inhibition of P-gp efflux of digoxin in cultured Caco-2 cells; assay type: in vitro ADME
T1 construct: P-gp efflux of digoxin (as determined by the corrected efflux ratio) in cultured Caco-2 cells; endogenous in cells; host or cells: Caco-2 cells
T1 sequence (P08183 whole entry): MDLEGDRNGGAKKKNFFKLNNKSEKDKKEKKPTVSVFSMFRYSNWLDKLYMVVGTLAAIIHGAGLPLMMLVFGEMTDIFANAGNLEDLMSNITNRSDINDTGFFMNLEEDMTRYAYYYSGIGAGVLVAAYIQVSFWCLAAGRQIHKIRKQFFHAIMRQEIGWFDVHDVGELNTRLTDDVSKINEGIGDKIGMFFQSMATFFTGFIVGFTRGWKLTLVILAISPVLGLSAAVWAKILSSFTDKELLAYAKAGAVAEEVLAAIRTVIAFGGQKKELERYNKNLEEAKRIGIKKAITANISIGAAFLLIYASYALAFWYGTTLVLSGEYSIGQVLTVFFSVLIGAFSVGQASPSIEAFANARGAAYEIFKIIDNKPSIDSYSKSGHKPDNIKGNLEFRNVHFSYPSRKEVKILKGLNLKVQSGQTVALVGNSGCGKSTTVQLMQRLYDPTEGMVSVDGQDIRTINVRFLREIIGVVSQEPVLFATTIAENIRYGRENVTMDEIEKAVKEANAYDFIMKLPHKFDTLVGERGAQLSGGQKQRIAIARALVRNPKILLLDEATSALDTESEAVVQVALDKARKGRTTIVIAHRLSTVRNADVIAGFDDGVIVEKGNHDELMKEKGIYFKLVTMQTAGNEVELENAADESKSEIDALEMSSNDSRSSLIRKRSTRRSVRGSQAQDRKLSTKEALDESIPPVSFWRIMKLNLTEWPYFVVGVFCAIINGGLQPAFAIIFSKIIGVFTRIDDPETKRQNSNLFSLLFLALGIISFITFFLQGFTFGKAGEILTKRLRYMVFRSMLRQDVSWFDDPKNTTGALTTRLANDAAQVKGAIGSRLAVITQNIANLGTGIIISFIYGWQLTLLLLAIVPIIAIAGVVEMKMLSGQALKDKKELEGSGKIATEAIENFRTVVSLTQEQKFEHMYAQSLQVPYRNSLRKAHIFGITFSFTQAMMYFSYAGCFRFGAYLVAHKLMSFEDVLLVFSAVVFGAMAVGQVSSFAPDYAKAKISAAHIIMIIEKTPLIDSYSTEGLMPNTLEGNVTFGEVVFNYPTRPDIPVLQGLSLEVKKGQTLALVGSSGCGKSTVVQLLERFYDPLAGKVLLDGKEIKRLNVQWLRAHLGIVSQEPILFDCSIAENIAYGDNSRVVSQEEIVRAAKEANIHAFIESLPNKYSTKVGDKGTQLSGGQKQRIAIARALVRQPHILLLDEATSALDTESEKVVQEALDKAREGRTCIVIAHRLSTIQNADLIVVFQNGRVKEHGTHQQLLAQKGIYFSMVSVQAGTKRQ
Method: FIG. 4. Estimation of IC50 of maribavir on P-gp efflux of digoxin (as determined by the corrected efflux ratio) in cultured Caco-2 cells. IC50, half maximal inhibitory concentration; P-gp, P-glycoprotein.
Drug-drug interaction potential of maribavir with cytochrome P450 enzymes and P-glycoprotein (P-gp) was thoroughly characterized. The reversible inhibition, time-dependent inhibition, and induction of CYPs were evaluated in the presence of maribavir using human cells or human-derived cell lines. The inhibition of P-gp was also assessed.

[5] = Observed clinical interaction of maribavir with ketoconazole in healthy subjects; assay type: in vivo, human; settings: for AUC(0-inf) / Cmax: human, in vivo, 400 mg
Method: A comparison of observed and predicted plasma concentrations of maribavir following a single oral dose of 400 mg administered in the absence of ketoconazole (a CYP3A4 inhibitor) and 1 hour after a single 400 mg dose of ketoconazole to healthy subjects was performed.

[6] = 400 mg, observed Geometric mean
[7] = maribavir 400 mg BID + rifampicin 600 mg QD
[8] = maribavir 400 mg BID with/without rifampicin 600 mg QD

## CC(C)Nc1nc2cc(Cl)c(Cl)cc2n1[C@H]1O[C@@H](CO)[C@H](O)[C@@H]1O [maribavir, (2S,3S,4R,5S)-2-(5,6-dichloro-2-(isopropylamino)-1H-benzo[d]imidazol-1-yl)-5-(hydroxymethyl)tetrahydrofuran-3,4-diol]
CYP3A4 mRNA; 36 μM maribavir, human hepatocytes
  fold increase in CYP3A4 mRNA induction: greater than 14 fold
CYP3A4 mRNA; human
  EC50 at 72 h: > 5 µM
CYP3A4 mRNA; human, hepatocytes, 72 h, 36 μM
  CYP3A4 mRNA induction, % of positive control (rifampicin) levels: greater than 30%
[1]
  effects on QT interval: no effects
[2]
  contribution of CYP1A2 to the CYP-driven pathways: 15-30%
  contribution of CYP3A4 to the CYP-driven pathways: 70-85%
  share of metabolism by glucuronidation: less than 20%
  share of total radioactivity in plasma: approximately 69%
clinical; 400 mg
  AUC(0-∞), observed Mean: 126 mg·h/L
clinical; 400 mg, observed
  AUC(0-t): 86600 ng·h/mL
clinical; 400 mg, observed Mean
  AUC(0-t): 89900 ng·h/mL
  AUC(0-inf): 89.9 µg·h/mL
  Cmax: 16900 ng/mL
clinical; [6]
  AUC(0-inf): 119 µg·h/mL
  Cmax: 19400 ng/mL
clinical; 400 mg, observed, row headed % CV
  Cmax: 16200 ng/mL
clinical; po, 400 mg, observed Mean
  AUC(0-inf): 97.8 µg·h/mL
  Cmax: 16700 ng/mL
clinical; po, 800 mg, observed Mean
  AUC(0-inf): 183 µg·h/mL
  Cmax: 26400 ng/mL
clinical; po, 1600 mg, observed Mean
  AUC(0-inf): 437 µg·h/mL
  Cmax: 48800 ng/mL
[3]
  Ratio AUC(0-12 h), observed Mean: 0.41
  Ratio C12 h, observed Mean: 0.17
  Ratio Cmax, observed Mean: 0.65
[4]; [7]
  AUC(0-12 h), RATIO GEOMETRIC MEAN PREDICTED/OBSERVED: 0.88
  AUC(0-12 h), RATIO MEAN PREDICTED/OBSERVED: 1.00
  C12 h, RATIO GEOMETRIC MEAN PREDICTED/OBSERVED: 0.22
  C12 h, RATIO MEAN PREDICTED/OBSERVED: 0.83
  Cmax, RATIO GEOMETRIC MEAN PREDICTED/OBSERVED: 0.75
  Cmax, RATIO MEAN PREDICTED/OBSERVED: 0.78
[4]; [8]
  Ratio AUC(0-12 h), RATIO GEOMETRIC MEAN PREDICTED/OBSERVED: 0.85
  Ratio AUC(0-12 h), RATIO MEAN PREDICTED/OBSERVED: 0.91
  Ratio C12 h, RATIO GEOMETRIC MEAN PREDICTED/OBSERVED: 0.24
  Ratio C12 h, RATIO MEAN PREDICTED/OBSERVED: 0.56
  Ratio Cmax, RATIO GEOMETRIC MEAN PREDICTED/OBSERVED: 0.89
  Ratio Cmax, RATIO MEAN PREDICTED/OBSERVED: 0.87
P-gp
  IC50: 33.8 µM
[5]; observed Geometric mean
  AUC(0-inf): 183 µg·h/mL
  Cmax: 21300 ng/mL
[5]; observed Mean
  AUC(0-inf): 194 µg·h/mL
  Cmax: 21800 ng/mL
[5]; with/without ketoconazole
  Ratio AUC(0-∞), observed Geometric mean: 1.53
  Ratio AUC(0-∞), observed Mean: 1.55
  Ratio Cmax, observed Geometric mean: 1.10
  Ratio Cmax, observed Mean: 1.12
